Measured values from US7745636B2, “Hepatitis C virus inhibitors” (Bristol-Myers Squibb Company, priority 2006, dated 2010).
pEC50: −log10 of the molar value.

The compounds below were run on HCV 1b-377-neo replicon cells (assay: HCV Replicon assay, HCV 1b-377-neo replicon cells). Details: Hepatitis C virus, Table 2, read-out: Range (EC50 against HCV 1b).
Format: cell-based, HCV 1b genotype
`COC(=O)N[C@H](C(=O)N1CCC[C@H]1c1nc(-c2cnc(-c3ccc(-c4cnc([C@@H]5CCCN5C(=O)[C@@H](NC(=O)OC)[C@@H](C)OC)[nH]4)c(F)c3)nc2)c[nH]1)[C@@H](C)OC` [Example D70, methyl ((1S,2R)-1-(((2S)-2-(5-(2-fluoro-4-(5-(2-((2S)-1-(N-(methoxycarbonyl)-O-methyl-L-threonyl)-2-pyrrolidinyl)-1H-imidazol-5-yl)-2-pyrimidinyl)phenyl)-1H-imidazol-2-yl)-1-pyrrolidinyl)carbonyl)-2-methoxypropyl) carbamate] was tested, and the pEC50 was 9.00 to 12.00. In the case of `C[C@@H](c1ncc(-c2ccc(-c3ccc(-c4cnc([C@@H]5CCCN5C(=O)[C@@H](c5ccccc5)N(C)C)[nH]4)cc3)cc2)[nH]1)N(C)C(=O)[C@@H](c1ccccc1)N(C)C` [Example 24-18-5, (2R)-2-(dimethylamino)-N-((1S)-1-(5-(4′-(2-((2S)-1-((2R)-2-(dimethylamino)-2-phenylacetyl)-2-pyrrolidinyl)-1H-imidazol-5-yl)-4-biphenylyl)-1H-imidazol-2-yl)ethyl)-N-methyl-2-phenylacetamide], the pEC50 was 9.00 to 12.00. With `COC(=O)N[C@@H](C(=O)N1CCC[C@H]1c1ncc(-c2cnc(-c3ccc(-c4[nH]c([C@@H]5CCCN5C(=O)[C@H](NC(=O)OC)c5ccccc5)nc4C(F)(F)F)cc3)nc2)[nH]1)c1ccccc1` [Example J46, methyl ((1R)-2-((2S)-2-(5-(4-(5-(2-((2S)-1-((2R)-2-((methoxycarbonyl)amino)-2-phenylacetyl)-2-pyrrolidinyl)-1H-imidazol-5-yl)-2-pyrimidinyl)phenyl)-4-(trifluoromethyl)-1H-imidazol-2-yl)-1-pyrrolidinyl)-2-oxo-1-phenylethyl) carbamate] the pEC50 was 9.00 to 12.00. With `COC(=O)N[C@@H](C(=O)N[C@@H](C)c1ncc(-c2ccc(-c3cnc(-c4cnc([C@@H]5CCCN5C(=O)[C@H](NC(=O)OC)c5ccccc5)[nH]4)cn3)cc2)[nH]1)c1ccccc1` [Example 152j-28, methyl ((1R)-2-((2S)-2-(5-(5-(4-(2-((1S)-1-(((2R)-2-((methoxycarbonyl)amino)-2-phenylace-tyl)amino)eth-yl)-1H-imidazol-5-yl)phenyl)-2-pyrazinyl)-1H-imidazol-2-yl)-1-pyrrolidinyl)-2-oxo-1-phenylethyl)carbamate] the pEC50 was 9.00 to 12.00. Work on `CN(C)[C@@H](C(=O)N1CCC[C@H]1c1ncc(-c2cnc(-c3cnc(-c4cnc([C@@H]5CCCN5C(=O)[C@@H](c5ccccc5)N(C)C)[nH]4)cn3)cn2)[nH]1)c1ccccc1` [Example 153c-5, (1R,1′R)-2,2′-(2,2′-bipyrazine-5,5′-diylbis(1H-imidazole-5,2-diyl(2S)-2,1-pyrrolidinediyl))bis(N, N-dimethyl-2-oxo-1-phenylethanamine)] yielded a pEC50 of 7.00 to 9.00. `CN(C)[C@@H](C(=O)N1CSC[C@H]1c1ncc(-c2ccc(-c3ccc(-c4cnc([C@@H]5CSCN5C(=O)[C@@H](c5ccccc5)N(C)C)[nH]4)cc3)cc2)[nH]1)c1ccccc1` [Example 148, (1R,1′R)-2,2′-(4,4′-biphenyldiylbis(1H-imidazole-5,2-diyl(4R)-1,3-thiazolidine-4,3-diyl))bis(N,N-dimethyl-2-oxo-1-phenylethanamine)] gave a pEC50 of 7.00 to 9.00. With `C[C@@H](OCc1ccccc1)[C@H](N)c1ncc(-c2ccc(-c3ccc(-c4cnc([C@@H]5CCCN5)[nH]4)cc3)cc2)[nH]1` [Example R35] the pEC50 was 6.00 to 7.00. With `COC(=O)N[C@@H](C(=O)N[C@@H](C)c1ncc(-c2ccc(-c3ccc(-c4cnc([C@@H]5CCCN5C(=O)[C@H](NC(=O)OC)c5ccccc5)[nH]4)cc3)nc2)[nH]1)c1ccccc1` [Example 152j-22, methyl ((1R)-2-((2S)-2-(5-(4-(5-(2-((1S)-1-(((2R)-2-((methoxycarbonyl)amino)-2-phenylace-tyl)amino)eth-yl)-1H-imidazol-5-yl)-2-pyridinyl)phenyl)-1H-imidazol-2-yl)-1-pyrrolidinyl)-2-oxo-1-phenylethyl)carbamate] the pEC50 was 9.00 to 12.00. In the case of `COC(=O)N[C@@H](C(=O)N(C)[C@@H](C)c1ncc(-c2ccc(-c3ccc(-c4cnc([C@@H]5CCCN5C(=O)[C@H](NC(=O)OC)c5ccccc5)[nH]4)cc3)cc2)[nH]1)c1ccccc1` [Example 24-18-4, methyl ((1R)-2-((2S)-2-(5-(4′-(2-((1S)-1-(((2R)-2-((methoxycarbonyl)amino)-2-phenylacetyl) (methyl)amino)ethyl)-1H-imidazol-5-yl)-4-biphenylyl)-1H-imidazol-2-yl)-1-pyrrolidinyl)-2-oxo-1-phenylethyl) carbamate], the pEC50 was 9.00 to 12.00. Work on `CN(C)[C@@H](C(=O)N1CCC[C@H]1c1ncc(-c2ccc(-c3ccc(-c4cnc([C@@H]5CCCN5C(=O)[C@@H](c5ccccc5)N(C)C)[nH]4)nc3)cc2)[nH]1)c1ccccc1` [Example 146, (1R)-2-((2S)-2-(5-(5-(4-(2-((2S)-1-((2R)-2-(dimethylamino)-2-phenylacetyl)-2-pyrrolidinyl)-1H-imidazol-5-yl)phenyl)-2-pyridinyl)-1H-imidazol-2-yl)-1-pyrrolidinyl)-N,N-dimethyl-2-oxo-1-phenylethanamine] yielded a pEC50 of 9.00 to 12.00. Work on `C[C@H](NC(=O)[C@@H](c1ccccc1)N(C)C)c1ncc(-c2ccc(-c3ccc(-c4cnc([C@@H]5CCCN5C(=O)[C@@H](c5ccccc5)N(C)C)[nH]4)cn3)cc2)[nH]1` [Example 152j-11, (2R)-2-(dimethylamino)-N-((1S)-1-(5-(4-(5-(2-((2S)-1-((2R)-2-(dimethylamino)-2-phenylacetyl)-2-pyrrolidinyl)-1H-imidazol-5-yl)-2-pyridinyl)phenyl)-1H-imidazol-2-yl)ethyl)-2-phenylacetamide] yielded a pEC50 of 9.00 to 12.00. For `CN(C)[C@@H](C(=O)N1CCC[C@H]1c1ncc(-c2ccc(-c3cnc(-c4cnc([C@@H]5CCCN5C(=O)[C@@H](c5ccccc5)N(C)C)[nH]4)cn3)cc2)[nH]1)c1ccccc1` [Example 152j-7, (1R)-2-((2S)-2-(5-(5-(4-(2-((2S)-1-((2R)-2-(dimethylamino)-2-phenylacetyl)-2-pyrrolidinyl)-1H-imidazol-5-yl)phenyl)-2-pyrazinyl)-1H-imidazol-2-yl)-1-pyrrolidinyl)-N,N-dimethyl-2-oxo-1-phenylethanamine], the pEC50 was 7.00 to 9.00. `COC(=O)N[C@H](C(=O)N[C@H](c1ncc(-c2ccc(-c3ccc(-c4cnc([C@@H]5CCCN5C(=O)[C@@H](NC(=O)OC)C(C)C)[nH]4)cc3)cc2)[nH]1)[C@@H](C)O)C(C)C` [Example R29] showed a pEC50 of 9.00 to 12.00. `COC(=O)N[C@@H](C(=O)N1CCC[C@H]1c1ncc(-c2ccc(-c3cnc(-c4cnc([C@@H]5CCCN5C(=O)[C@H](NC(=O)OC)c5ccccc5)[nH]4)cn3)cc2)[nH]1)c1ccccc1` [Example 152j-8, methyl ((1R)-2-((2S)-2-(5-(5-(4-(2-((2S)-1-((2R)-2-((methoxycarbonyl)amino)-2-phenylacetyl)-2-pyrrolidinyl)-1H-imidazol-5-yl)phenyl)-2-pyrazinyl)-1H-imidazol-2-yl)-1-pyrrolidinyl)-2-oxo-1-phenylethyl)carbamate] showed a pEC50 of 9.00 to 12.00. `COC(=O)N[C@@H](C(=O)N(C)[C@@H](C)c1ncc(-c2ccc(-c3ccc(-c4cnc([C@@H]5CCCN5C(=O)[C@@H](c5ccccc5)N5CCCCC5)[nH]4)cc3)cc2)[nH]1)c1ccccc1` [Example 131.1-2, methyl((1R)-2-(methyl((1S)-1-(5-(4′-(2-((2S)-1-((2R)-2-phenyl-2-(1-piperidinyl)acetyl)-2-pyrrolidinyl)-1H-imidazol-5-yl)-4-biphenylyl)-1H-imidazol-2-yl)ethyl)amino)-2-oxo-1-phenylethyl)carbamate] showed a pEC50 of 9.00 to 12.00. For `CO[C@@H](C(=O)N1CCC[C@H]1c1ncc(-c2ccc(-c3ccc(-c4cnc([C@@H]5CCCN5C(=O)[C@H](OC)c5ccccc5)[nH]4)cn3)cc2)[nH]1)c1ccccc1` [Example 135, 5-(2-((2S)-1-((2R)-2-methoxy-2-phenylacetyl)-2-pyrrolidinyl)-1H-imidazol-5-yl)-2-(4-(2-((2S)-1-((2R)-2-methoxy-2-phenylacetyl)-2-pyrrolidinyl)-1H-imidazol-5-yl)phenyl)pyridine], the pEC50 was 9.00 to 12.00. With `C[C@H](NC(=O)[C@@H](c1ccccc1)N(C)C)c1ncc(-c2ccc(-c3ccc(-c4cnc([C@@H]5CCCN5C(=O)[C@@H](c5ccccc5)N(C)C)[nH]4)nn3)cc2)[nH]1` [Example 152j-13, (2R)-2-(dimethylamino)-N-((1S)-1-(5-(4-(6-(2-((2S)-1-((2R)-2-(dimethylamino)-2-phenylacetyl)-2-pyrrolidinyl)-1H-imidazol-5-yl)-3-pyridazinyl)phenyl)-1H-imidazol-2-yl)ethyl)-2-phenylacetamide] the pEC50 was 7.00 to 9.00. `COC(=O)N[C@@H](C(=O)N1CCC[C@H]1c1ncc(-c2cnc(-c3cnc(-c4cnc([C@@H]5CCCN5C(=O)[C@H](NC(=O)OC)c5ccccc5)[nH]4)cn3)cn2)[nH]1)c1ccccc1` [Example 153c-6, dimethyl (2,2′-bipyrazine-5,5′-diylbis(1H-imidazole-5,2-diyl(2S)-2,1-pyrrolidinediyl((1R)-2-oxo-1-phenyl-2,1-ethanediyl))) biscarbamate] was tested, and the pEC50 was 7.00 to 9.00. Work on `COCC[C@H](NC(=O)OC)C(=O)N[C@H](c1nc(-c2ccc(-c3ccc(-c4c[nH]c([C@@H]5CCCN5C(=O)[C@H](CCOC)NC(=O)OC)n4)cc3)cc2)c[nH]1)C(C)C` [Example R20, methyl ((1S)-3-methoxy-1-(((2S)-2-(4-(4′-(2-((1S)-1-((N-(methoxycarbonyl)-O-methyl-L-homoseryl)amino)-2-methylpropyl)-1H-imidazol-4-yl)-4-biphenylyl)-1H-imidazol-2-yl)-1-pyrrolidinyl)carbonyl)propyl)carbamate] yielded a pEC50 of 9.00 to 12.00.

Same assay, conditions: Table 2, listed as 151 isomer 2, read-out: Range (EC50 against HCV 1b)
For `CN(C)[C@@H](C(=O)N1CCC[C@H]1c1nc(-c2ccc(-c3ccc(-c4cn(C)c([C@@H]5CCCN5C(=O)[C@@H](c5ccccc5)N(C)C)n4)cc3)cc2)cn1C)c1ccccc1` (single isomer, unassigned) [Example 151 isomer 2], the pEC50 was 6.00 to 7.00.

Same assay, conditions: Table 2, read-out: Range (EC50 against HCV 1b)
`CNCC(=O)N1CCC[C@H]1c1ncc(-c2ccc(-c3ccc(-c4cnc([C@@H]5CCCN5C(=O)[C@@H](NC(=O)OC)C(C)C)[nH]4)cc3)cc2)[nH]1` [LS20] was tested, and the pEC50 was 9.00 to 12.00.
